Measurements as given in ChEMBL document CHEMBL1131254, “Molecular modeling studies of the DNA-topoisomerase I ternary cleavable complex with camptothecin” (J Med Chem, 1998).
Active and inactive are the calls of the source. The calls are words filed in the database; no cut-off is given here.

target: T1, DNA topoisomerase 1 (Homo sapiens) (UniProt P11387); test: The compound was tested for top1-induced DNA cleavage activity; ++ indicates more potent than CPT; assay type: functional
T1 sequence (whole entry): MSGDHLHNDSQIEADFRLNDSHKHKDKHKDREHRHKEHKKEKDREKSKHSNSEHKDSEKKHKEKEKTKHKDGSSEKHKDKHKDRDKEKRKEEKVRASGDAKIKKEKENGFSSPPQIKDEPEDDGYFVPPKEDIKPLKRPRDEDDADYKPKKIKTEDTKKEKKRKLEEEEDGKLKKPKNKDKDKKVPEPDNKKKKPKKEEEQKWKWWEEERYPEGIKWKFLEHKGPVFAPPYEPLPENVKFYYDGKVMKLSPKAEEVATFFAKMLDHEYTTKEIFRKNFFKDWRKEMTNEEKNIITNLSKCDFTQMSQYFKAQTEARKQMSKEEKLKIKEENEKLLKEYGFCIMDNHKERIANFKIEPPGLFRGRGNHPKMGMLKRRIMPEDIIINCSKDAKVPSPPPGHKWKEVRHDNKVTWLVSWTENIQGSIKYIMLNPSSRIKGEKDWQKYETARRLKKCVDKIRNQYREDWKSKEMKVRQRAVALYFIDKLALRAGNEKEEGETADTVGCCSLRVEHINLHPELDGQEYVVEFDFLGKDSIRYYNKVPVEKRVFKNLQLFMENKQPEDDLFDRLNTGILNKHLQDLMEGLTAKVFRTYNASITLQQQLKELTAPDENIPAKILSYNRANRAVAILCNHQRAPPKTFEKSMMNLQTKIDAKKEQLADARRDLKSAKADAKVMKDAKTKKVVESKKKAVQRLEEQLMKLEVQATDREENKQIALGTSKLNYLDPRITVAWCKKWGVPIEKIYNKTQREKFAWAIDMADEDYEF

Question: How did the inhibition turn out when `CC[C@@]1(O)C(=O)OCc2c1cc1n(c2=O)Cc2c-1nc1cc3c(cc1c2CN1CCN(C)CC1)OCCO3` was run?
Answer: The inhibition was “more potent than CPT”.

Question: With `CC[C@@]1(O)C(=O)OCc2c1cc1n(c2=O)Cc2cc3cc(N)c(O)cc3nc2-1` as the compound, how does the inhibition read?
Answer: Its inhibition is “more potent than CPT”.

Question: For `CC[C@@]1(O)C(=O)OCc2c1cc1n(c2=O)Cc2c-1nc1cc3c(cc1c2CN1CCN(C)CC1)OCO3`, which inhibition is on record?
Answer: The inhibition was “more potent than CPT”.

target: T1, DNA topoisomerase 1 (Homo sapiens); test: The compound was tested for top1-induced DNA cleavage activity; - indicates inactive; assay type: functional

Question: For `CC[C@@]1(O)C(=O)OCc2c1ccc1c2Cc2cc3ccccc3nc2-1`, which inhibition is on record?
Answer: The inhibition was “inactive”.

Question: With `CC[C@@]1(O)C(=O)OCc2c1cc1n(c2=O)Cc2cc3cc(OC)c(OC)cc3nc2-1` (stereo in doubt; form 2) as the compound, how does the inhibition read?
Answer: The inhibition was “inactive”.

Question: With `CC[C@@]1(O)C(=O)OCc2c1cc1n(c2=O)Cc2cc3cc(OC)c(OC)cc3nc2-1` (stereo in doubt; form 3) as the compound, how does the inhibition read?
Answer: Its inhibition is “inactive”.

Question: How did the inhibition turn out when `CC[C@@]1(O)C(=O)OCc2c1cc1n(c2=O)Cc2cc3cc(OC)c(OC)cc3nc2-1` (stereo in doubt; form 1) was run?
Answer: The inhibition was “inactive”.

Question: For `CC[C@H]1C(=O)OCc2c1cc1n(c2=O)Cc2cc3ccccc3nc2-1`, which inhibition is on record?
Answer: Its inhibition is “inactive”.

Question: `CC[C@]1(O)C(=O)OCc2c1cc1n(c2=O)Cc2cc3ccccc3nc2-1` was tested. Which inhibition did it give?
Answer: The inhibition was “inactive”.

Question: Which inhibition does the source give for `CC[C@@]1(O)C(=O)OCc2cc3c(cc21)-c1nc2ccccc2cc1C3` here?
Answer: The inhibition was “inactive”.

target: T1, DNA topoisomerase 1 (Homo sapiens); test: The compound was tested for top1-induced DNA cleavage activity; + indicates comparable to CPT; assay type: functional

Question: For `CC[C@@]1(O)C(=O)OCc2c1cc1n(c2=O)Cc2c-1nc1cnc(CN)cc1c2C`, which inhibition is on record?
Answer: Its inhibition is “comparable to CPT”.
